Measured values reported in patent US12570612B2, “Substituted nitrogen heterocyclic compound and anesthetic effect thereof” (priority 2019, dated 2026).
Values joined by “and” are separate entries in the source; they are usually repeats but may differ in a detail not shown here. Equal values may be shown once. “Also recorded” adds a separate entry of the source. Read-outs that look alike come from different tables or passages of the source.

Legend:
[1] = system: Sprague-Dawley rats; experiment: animal or person; conditions: for Approximate therapeutic index / Minimal lethal dose: rats
Method: (§1) Adult male Sprague-Dawley rats (250-300 g) were selected for the experiment. […] The anesthesia effects of the compounds were assessed in rats using a LORR assay and a period >30 s was considered as an indicator of general anesthesia.

[2] = system: Sprague-Dawley rats; experiment: Pharmacological characteristics at equivalent doses (2ED50), Group A compounds; type: in vivo; design: Sedation duration: unit not given here; conditions: 2ED50, tail vein; for Types and incidence of adverse reactions: (animals affected/animals)
[3] = system: H295R cell line; experiment: Adrenocortical function in vitro test: secretion of cortisol and corticosterone, Group A compounds; type: cell-based; conditions: H295 cells; for EC50: 0.1-10000 nM, HPLC-MS/MS
[4] = system: Sprague-Dawley rats; conditions: for Recovery time after stopping infusion: LORR maintained for 1 hour; for Recovery time after stopping infusion / Onset time: 2 times the MIR; for Onset time / Types and incidence of adverse reactions: continuous infusion; for Types and incidence of adverse reactions: (animals affected/animals)
Method: Adult male Sprague-Dawley rats with body weight ranging from 250 to 300 gm were selected for continuous infusion test. […] Time to recovery of righting reflex from stopping infusion, and time to fully awake from stopping infusion were recorded.

[5] = system: Sprague-Dawley rats; experiment: animal or person; conditions: for ED50: LORR in rats, tail vein, brackets = 95% confidence limit; for Approximate therapeutic index / Minimal lethal dose: rats
Method: as §1

[6] = system: H295R cell line; experiment: Adrenocortical function in vitro test: secretion of cortisol and corticosterone, Group B compounds; type: cell-based; conditions: H295R cells; for EC50: 0.1-10000 nM, HPLC-MS/MS
[7] = system: Sprague-Dawley rats; experiment: Continuous infusion at 2 times the MIR for 1 hour, Group B compounds; type: in vivo; conditions: for Recovery time after stopping infusion: after 1 hour continuous infusion at 2 times the MIR; for Recovery time after stopping infusion / Onset time: rats; for Onset time: continuous tail vein infusion at 2 times the MIR, emulsion
[8] = Homo sapiens, read-out: EC50 (Corticosterone)
[9] = Homo sapiens, read-out: EC50 (Cortisol)
[10] = read-out: EC50 (Corticosterone)
[11] = continuous infusion 2 x MIR 1 hour, rats affected/rats

| SMILES | ED50 ([1]; Rattus norvegicus) [mg/kg] | Approximate therapeutic index [1] | Minimal lethal dose [1] [mg/kg] | Onset time [2] [min] | Righting reflex duration [2] [min] | Types and incidence of adverse reactions [2] | Corticosterone as an indicator to determine the presence of inhibition [3] | Cortisol as an indicator to determine the presence of inhibition [3] | EC50 [3, 8] [nM] | EC50 [3, 9] [nM] | Recovery time after stopping infusion [4] [min] | Onset time [4] [min] | Types and incidence of adverse reactions [4] | ED50 [5] | Approximate therapeutic index [5] | Minimal lethal dose [5] [mg/kg] | Corticosterone as an indicator to determine the presence of inhibition [6] | Cortisol as an indicator to determine the presence of inhibition [6] | Types and incidence of adverse reactions: Tremor [7, 11] | Onset time [7] [min] | also measured |
| --- | --- | --- | --- | --- | --- | --- | --- | --- | --- | --- | --- | --- | --- | --- | --- | --- | --- | --- | --- | --- | --- |
| C[C@H](c1ccccc1)n1nccc1C(=O)OC1CCC1 [Compound A4] | 1 to 2 | >11 | >15 | 0.52 ± 0.21 | 1.39 ± 0.66 | Red urine(6/6),; also recorded: Euphoria(5/6), Hindlimb; also recorded: rigidity(1/6) | 0 | 0 | > 1000 | > 1000 | 14 to 16 | 4 to 5 | Tremor(3/6), Tongue; also recorded: stretching(4/6) |  |  |  |  |  |  |  |  |
| C[C@H](c1ccccc1)n1nccc1C(=O)OC1(C)COC1 [Compound A30] | 1 to 2 | >6 | >7 | 0.3 ± 0.22 | 2.6 ± 0.83 | Red and urine(8/8), Euphoria(3/8), and Tremor(1/8) | 0 | 0 | > 1000 | > 1000 | 8 to 14 | 3 to 4 | Tremor(2/6) |  |  |  |  |  |  |  |  |
| C=C=CC(C)(C)OC(=O)c1ccnn1[C@H](C)c1ccccc1 [Compound A14] | 1 to 2 | >8 | >11 | 0.78 ± 0.22 | 1.20 ± 0.72 | Red urine(5/5), Four limbs; also recorded: Tremor(1/5) | 0 | 0 | > 1000 | > 1000 | 10 to 14 | 6 to 7 | Tremor(1/6), |  |  |  |  |  |  |  |  |
| COC(=O)C1=C(OC(=O)c2ccnn2[C@H](C)c2ccccc2)CCC1 [Compound A20] |  | >10 | >12 | 0.67 ± 0.14 | 1.15 ± 0.66 | Red urine(8/8), Hindlimb; also recorded: rigidity(3/8), General; also recorded: Tremor(1/8) | 0 | 0 |  |  | 12 to 15 | 5 to 6 | Tremor(5/6) |  |  |  |  |  |  |  | ED50 ([1]; LORR in rats, tail vein, brackets = 95% confidence limit): C (C indicates that the measured ED50 is in the range of 1.00-2.00 mg/kg (excluding 1.00 mg/kg, including 2.00 mg/kg)); Sedation duration [2]: 7.05 ± 3.95; EC50 [3, 10]: > 100 nM; EC50 ([3]; read-out: EC50 (Cortisol)): > 100 nM |
| C=C=CC1(OC(=O)c2cc(F)nn2[C@H](C)c2ccccc2)COC1 [Compound A52] | 0.5 to 1 | >16 | >11 | 0.50 ± 0.08 | 2.01 ± 1.00 | Red and urine(8/8), Euphoria(3/8), and broken-winded(1/8) | 0 | 0 | > 1000 | > 1000 | 13 to 18 | 5 to 6 | Tongue stretching(4/6),; also recorded: Tremor(4/6) |  |  |  |  |  |  |  |  |
| C[C@H](c1ccccc1)n1nncc1C(=O)OC1CCC1 [Compound B6] |  |  |  |  |  |  |  |  |  |  |  |  |  | A (A indicates that the measured ED50 is in the range of 0.04-0.50 mg/kg (including 0.04 and 0.50 mg/kg)) | >71 | >10 | 0 | 0 | Tremor(2/6), Tongue | 4 to 6 | EC50 [6, 10]: > 100 nM; EC50 ([6]; read-out: EC50 (Cortisol)): > 100 nM; Recovery time after stopping infusion [7]: 14 to 16 min; Types and incidence of adverse reactions: Tongue stretching [7, 11]: stretching(2/6) |
| C[C@H](c1ccccc1)n1nnc(Cl)c1C(=O)SC1CCC1 [Compound B80] |  |  |  |  |  |  |  |  |  |  |  |  |  | D (D indicates that the measured ED50 is in the range of 2.00-10.00 mg/kg (excluding 2.00 mg/kg, including 10.00 mg/kg)) | >3 | >16 | 0 | 0 | Tremor(5/6) | 3 to 5 | EC50 [6, 10]: > 1000 nM; EC50 ([6]; read-out: EC50 (Cortisol)): > 1000 nM; Recovery time after stopping infusion [7]: 12 to 16 min |
| CC(=O)C1=C(OC(=O)c2c(F)cnn2[C@H](C)c2ccccc2)CCC1 [Compound A90] | 1 to 2 | >5 | >10 | 0.51 ± 0.07 | 5.21 ± 1.45 | Red and urine(8/8), Convulsions(2/ and 8), Nod(1/8) | 0 | 0 | > 1000 | > 1000 | 2 to 15 | 5 to 6 | Tremor(3/6) |  |  |  |  |  |  |  |  |
| CCOC(=O)c1c(Br)nnn1[C@H](C)c1ccccc1 [Compound B118] |  |  |  |  |  |  |  |  |  |  |  |  |  | C (C indicates that the measured ED50 is in the range of 1.00-2.00 mg/kg (excluding 1.00 mg/kg, including 2.00 mg/kg)) | >12 | >17 | 0 | 0 | Tremor(4/6), Tongue | 6 to 7 | EC50 [6, 10]: > 1000 nM; EC50 ([6]; read-out: EC50 (Cortisol)): > 1000 nM; Recovery time after stopping infusion [7]: 13 to 15 min; Types and incidence of adverse reactions: Tongue stretching [7, 11]: stretching(4/6) |
| CC(=O)C1=C(OC(=O)c2c(F)nnn2[C@H](C)c2ccccc2)CCCC1 [Compound B47] |  |  |  |  |  |  |  |  |  |  |  |  |  | C (C indicates that the measured ED50 is in the range of 1.00-2.00 mg/kg (excluding 1.00 mg/kg, including 2.00 mg/kg)) | >9 | >13 | 0 | 0 | Tremor(4/6), | 3 to 4 | EC50 [6, 10]: > 100 nM; EC50 ([6]; read-out: EC50 (Cortisol)): > 100 nM; Recovery time after stopping infusion [7]: 7 to 15 min; Types and incidence of adverse reactions: Forelimbrigidity [7, 11]: Forelimbrigidity(1/6) |
| C[C@H](c1ccccc1)n1nncc1C(=O)OC1(C)COC1 [Compound B14] |  |  |  |  |  |  |  |  |  |  |  |  |  |  | >5 | >7 | 0 | 0 | Tremor(3/6) | 5 to 6 | ED50 ([5]; Rattus norvegicus): 1 to 2 mg/kg; EC50 ([6]; Homo sapiens, NCI-H295R, read-out: EC50 (Corticosterone)): > 1000 nM; EC50 ([6]; Homo sapiens, NCI-H295R, read-out: EC50 (Cortisol)): > 1000 nM |
